Results as given in patent publication US6544985B2, “Dihydro-benzo [b][1,4]diazepin-2-one derivatives” (Hoffman-La Roche Inc., priority 2001, dated 2003).

What was measured:
[1] = target: T1, recombinant rat mGluR2 expressed in CHO cells (Rattus norvegicus, UniProt P31421); assay: [3H]-LY354740 binding on mGlu2 transfected CHO cell membranes (displacement binding assay)
T1 construct: expressed in transfected cells; vector pcDNA I-amp, construct pcD1mGR2
T1 sequence (P31421 19-872): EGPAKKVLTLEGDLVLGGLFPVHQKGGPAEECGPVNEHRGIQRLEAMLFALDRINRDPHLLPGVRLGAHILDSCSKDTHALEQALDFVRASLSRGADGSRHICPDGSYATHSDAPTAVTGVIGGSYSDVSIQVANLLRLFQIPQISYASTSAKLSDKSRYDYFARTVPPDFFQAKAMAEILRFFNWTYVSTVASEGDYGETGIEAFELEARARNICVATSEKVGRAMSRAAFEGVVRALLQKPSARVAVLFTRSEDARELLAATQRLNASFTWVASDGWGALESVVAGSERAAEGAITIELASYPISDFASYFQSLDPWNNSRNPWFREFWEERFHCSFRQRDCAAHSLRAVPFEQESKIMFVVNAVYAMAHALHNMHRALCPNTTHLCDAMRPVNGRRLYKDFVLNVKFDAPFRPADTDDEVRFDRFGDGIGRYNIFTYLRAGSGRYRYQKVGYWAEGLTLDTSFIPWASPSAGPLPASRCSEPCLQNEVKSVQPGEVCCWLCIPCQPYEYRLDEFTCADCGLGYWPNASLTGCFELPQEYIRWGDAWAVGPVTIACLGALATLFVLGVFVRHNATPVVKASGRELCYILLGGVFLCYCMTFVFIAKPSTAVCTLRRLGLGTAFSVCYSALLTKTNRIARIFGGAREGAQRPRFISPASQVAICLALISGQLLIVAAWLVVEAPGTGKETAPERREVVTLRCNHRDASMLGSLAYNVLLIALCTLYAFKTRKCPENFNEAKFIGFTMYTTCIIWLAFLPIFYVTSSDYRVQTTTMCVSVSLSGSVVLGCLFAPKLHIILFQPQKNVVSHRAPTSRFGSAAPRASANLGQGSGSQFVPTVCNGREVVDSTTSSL
From the text: These values were obtained by indirect measurement of the affinity of the compounds for the recombinant rat mGluR2 expressed in CHO cells using a displacement binding assay with 3H-LY354740.
Transfection and Cell Culture
cDNA encoding the rat mGlu2 receptor protein in pBluescript II was obtained from Prof. S. Nakanishi (Kyoto, Japan), and subcloned into the eukaryotic expression vector pcDNA I-amp from Invitrogen (NV Leek, The Netherlands). This vector construct (pcD1mGR2) was co-transfected with a psvNeo plasmid encoding the gene for neomycin resistance, into CHO cells by a modified calcium phosphate method described by Chen & Okayama (1988). The cells were maintained in Dulbecco's Modified Eagle medium with reduced L-glutamine (2 mM final concentration) and 10% dialysed foetal calf serum from Gibco BRL (Basel, Switzerland). Selection was made in the presence of G-418 (1000 ug/ml final). Clones were identified by reverse transcription of 5 μg total RNA, followed by PCR using mGlu2 receptor specific primers 5′-[sequence]-3′ and 5′-[sequence]-3′ in 60 mM Tris HCl (pH 10), 15 mM (NH4)2SO4, 2 mM MgCl2, 25 units/ml Taq Polymerase with 30 cycles annealing at 60° C. for 1 min., extention at 72° C. for 30 s, and 1 min. 95° C. denaturation.
Cells, cultured as above, were harvested and washed three times with cold PBS and frozen at −80° C. The pellet was resuspended in cold 20 mM HEPES-NaOH buffer containing 10 mM EDTA (pH 7.4), and homogenised with a polytron (Kinematica, AG, Littau, Switzerland) for 10 s at 10 000 rpm. After centrifugation for 30 min. at 4° C., the pellet was washed once with the same buffer, and once with cold 20 mM HEPES-NaOH buffer containing 0.1 mM EDTA, (pH 7.4). Protein content was measured using the Pierce method (Socochim, Lausanne, Switzerland) using bovine serum albumin as standard.
After thawing, the membranes were resuspended in cold 50 mM Tris-HCl buffer containing 2 mM MgCl2 and 2 mM CaCl2, (pH 7) (binding buffer). The final concentration of the membranes in the assays was 25 µg protein/ml. Inhibition experiments were performed with membranes incubated with 10 nM [^3H]-LY354740 at room temperature, for 1 hour, in presence of various concentrations of the compound to be tested. Following the incubations, membranes were filtered onto Whatmann GF/C glass fiber filters and washed 5 times with cold binding buffer. Non specific binding was measured in the presence of 10 μM DCG IV. After transfer of the filters into plastic vials containing 10 ml of Ultima-gold scintillation fluid (Packard, Zürich, Switzerland), the radioactivity was measured by liquid scintillation in a Tri-Carb 2500 TR counter (Packard, Zürich, Switzerland).
The inhibition curves were fitted with a four parameter logistic equation giving IC50 values, and Hill coefficients and the Ki values were calculated using the Cheng and Prusoff equation (Cheng, Y. and Prusoff, W. H., Biochem. Pharmacol. 1973, 22, 3099-3108). A small Ki value expresses high affinity of the compound towards the receptor.

| SMILES | Ki [1] [nM] | melting point [°C] |
| --- | --- | --- |
| CCCN(C)c1cc2c(cc1C(F)(F)F)NC(=O)CC(c1cccc(-n3cncn3)c1)=N2 [Example 169] | 27 | 185 |
| CC(C)CN(C)c1cc2c(cc1C(F)(F)F)NC(=O)CC(c1cccc(-n3cncn3)c1)=N2 [Example 174, 7-(Isobutyl-methyl-amino)-4-(3-[1,2,4]triazol-1-yl-phenyl)-8-trifluoromethyl-1,3-dihydro-benzo[b][1,4]diazepin-2-one] | 12 | 198 |
| CC(C)CN(C)c1cc2c(cc1Cl)NC(=O)CC(c1cccc(-c3nc(CO)cs3)c1)=N2 [Example 186, 8-Chloro-4-[3-(4-hydroxymethyl-thiazol-2-yl)-phenyl]-7-(isobutyl-methyl-amino)-1,3-dihydro-benzo[b][1,4]diazepin-2-one] | 3 | 135 to 136 |
| CCNc1nc(-c2cccc(C3=Nc4cc(N(C)C)c(Cl)cc4NC(=O)C3)c2)cs1 [Example 195, 8-Chloro-7-dimethylamino-4-[3-(2-ethylamino-thiazol-4-yl)-phenyl]-1,3-dihydro-benzo[b][1,4]diazepin-2-one] | 480 | 122 to 123 |
| CN(C)c1cc2c(cc1C(F)(F)F)NC(=O)CC(c1cccc(-c3nnc(CO)s3)c1)=N2 [Example 204, 7-Dimethylamino-4-[3-(5-hydroxymethyl-[1,3,4]thiadiazol-2-yl)-phenyl]-8-trifluoromethyl-1,3-dihydro-benzo[b][1,4]diazepin-2-one] | 17 | 242 to 246 |
| CCCc1oc(C)nc1-c1cccc(C2=Nc3cc(N(C)C)c(C(F)(F)F)cc3NC(=O)C2)c1 [Example 212, 7-Dimethylamino-4-[3-(2-methyl-5-propyl-oxazol-4-yl)-phenyl]-8-trifluoromethyl-1,3-dihydro-benzo[b][1,4]diazepin-2-one] | 46 | 211 to 212 |
| CCCN(C)c1cc2c(cc1C(F)(F)F)NC(=O)CC(c1cccc(-c3nnc(CO)s3)c1)=N2 [Example 222, 4-[3-(5-Hydroxymethyl-[1,3,4]thiadiazol-2-yl)-phenyl]-7-(methyl-propyl-amino)-8-trifluoromethyl-1,3-dihydro-benzo[b][1,4]diazepin-2-one] | 8 | 193 to 194 |
